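A five-concentration, 48-hour dose response in 96-well plates underlies each endpoint, interpolated linearly between surrounding concentrations. GI50 = concentration required for 50% inhibition of growth.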 The source made the active and inactive calls. No stated cut-off is given here; in the data, active = GI50 up to about 1.1 µM and inactive = higher.
Experiments:
Test in all cases: NCI anticancer screen, dose series, 48 h
[1] = tested on: SK-MEL-28
[2] = tested on: KM12
[3] = tested on: SK-MEL-2
[4] = tested on: NCI-H23
[5] = tested on: RPMI-8226
[6] = tested on: ACHN
[7] = tested on: MOLT-4
[8] = tested on: SW-620
[9] = tested on: IGROV-1
[10] = tested on: HOP-92
[11] = tested on: UACC-257
[12] = tested on: HCC 2998
[13] = tested on: OVCAR-3
[14] = tested on: HT-29
[15] = tested on: OVCAR-8
[16] = tested on: SR
[17] = tested on: TK-10

Row | Compound | GI50 [1] | GI50 [2] | GI50 [3] | GI50 [4] | GI50 [5] | GI50 [6] | GI50 [7] | GI50 [8] | GI50 [9] | GI50 [10] | GI50 [11] | GI50 [12] | GI50 [13] | GI50 [14] | GI50 [15] | GI50 [16] | GI50 [17]
1 | CC(C)CC(CNC(Cc1ccc(Cl)cc1)C(N)=O)NC(=O)C(Cc1c[nH]cn1)NC(=O)CNC(=O)C(NC(=O)C(C)NC(=O)C(Cc1c[nH]c2ccccc12)NC(=O)C(CCC(=O)O)NC(=O)C(N)Cc1ccccc1)C(C)C (stereo not given) | > 133 µM (inactive) | > 133 µM (inactive) | > 133 µM (inactive) | > 133 µM (inactive) | > 133 µM (inactive) | > 133 µM (inactive) | > 133 µM (inactive) | > 133 µM (inactive) | > 133 µM (inactive) | < 0.0133 µM (active) | > 133 µM (inactive) | > 133 µM (inactive) | > 133 µM (inactive) | > 133 µM (inactive) | > 133 µM (inactive) | > 133 µM (inactive) | 
2 | CN(C)CCn1c2c3ccccc3ccc2c2oc(=O)c3ccccc3c21 | 5.68 µM (inactive) | 6.71 µM (inactive) | 17.9 µM (inactive) | 6.3 µM (inactive) | 4.35 µM (inactive) | 5.24 µM (inactive) | 2.62 µM (inactive) | 4 µM (inactive) | 12.1 µM (inactive) | 5.58 µM (inactive) | 4.83 µM (inactive) |  | 4.4 µM (inactive) | 4.86 µM (inactive) | 5.53 µM (inactive) | 2.78 µM (inactive) | 12.6 µM (inactive)
3 | O=C1NC2OC(CO)C(O)C(O1)C2O (stereo not given) | > 100 µM (inactive) | > 100 µM (inactive) | > 100 µM (inactive) | > 100 µM (inactive) | > 100 µM (inactive) | > 100 µM (inactive) | > 100 µM (inactive) | > 100 µM (inactive) | > 100 µM (inactive) | > 100 µM (inactive) | > 100 µM (inactive) |  | > 100 µM (inactive) | > 100 µM (inactive) | > 100 µM (inactive) | > 100 µM (inactive) | > 100 µM (inactive)
4 | CCOC(=O)c1c(/C=N\Nc2ccccc2)nc2ccccc2c1-c1ccccc1 | 70.8 µM (inactive) | 43.9 µM (inactive) | 40.8 µM (inactive) | 39.7 µM (inactive) | 20.1 µM (inactive) | 32.7 µM (inactive) | 20.7 µM (inactive) | 38.1 µM (inactive) | 67.1 µM (inactive) | 45.4 µM (inactive) | 70.3 µM (inactive) | 21.8 µM (inactive) | 31.7 µM (inactive) | 37.6 µM (inactive) | 32.1 µM (inactive) | 19.2 µM (inactive) | > 100 µM (inactive)
5 | O=c1c2cccnc2ncn1CCCN1CCOCC1 | > 100 µM (inactive) | > 100 µM (inactive) | > 10 µM (inactive) | > 100 µM (inactive) |  | > 100 µM (inactive) | > 10 µM (inactive) | > 100 µM (inactive) | > 100 µM (inactive) | > 100 µM (inactive) |  | > 100 µM (inactive) | > 100 µM (inactive) | > 100 µM (inactive) | > 100 µM (inactive) | > 100 µM (inactive) | > 100 µM (inactive)
6 | O=CN1CCN(C=S)CC1 | > 100 µM (inactive) | > 100 µM (inactive) |  | > 100 µM (inactive) | > 100 µM (inactive) | > 100 µM (inactive) | > 100 µM (inactive) | > 100 µM (inactive) | > 100 µM (inactive) | > 100 µM (inactive) | > 100 µM (inactive) | > 100 µM (inactive) | > 100 µM (inactive) | > 100 µM (inactive) | > 100 µM (inactive) | 54.5 µM (inactive) | > 100 µM (inactive)
7 | O=c1c2ccccc2[nH]c(=S)n1-c1ccc(Br)cc1 | > 100 µM (inactive) | > 100 µM (inactive) | > 100 µM (inactive) | 51.9 µM (inactive) | 40.1 µM (inactive) | 42.5 µM (inactive) | 76 µM (inactive) | 87.1 µM (inactive) | 71.4 µM (inactive) | 18.8 µM (inactive) | > 100 µM (inactive) | > 100 µM (inactive) | 45.1 µM (inactive) | 44.9 µM (inactive) | 95.5 µM (inactive) | > 100 µM (inactive) | > 100 µM (inactive)
8 | C/C(CC(=O)Nc1ccc([N+](=O)[O-])cc1)=N\NC(N)=O | > 100 µM (inactive) | > 100 µM (inactive) | > 100 µM (inactive) | > 100 µM (inactive) | > 46.1 µM (inactive) | > 100 µM (inactive) | > 100 µM (inactive) | > 100 µM (inactive) | > 100 µM (inactive) | > 100 µM (inactive) | > 100 µM (inactive) | > 100 µM (inactive) | > 100 µM (inactive) | > 100 µM (inactive) | > 44.4 µM (inactive) | 24.4 µM (inactive) | > 100 µM (inactive)
9 | C[n+]1ccc(Nc2ccc(NC(=O)c3ccc(Nc4cc[n+](C)c5ccc([N+](=O)[O-])cc45)cc3[N+](=O)[O-])cc2)cc1 | 28.4 µM (inactive) | 47.8 µM (inactive) | 50.1 µM (inactive) | 29.7 µM (inactive) | 13.3 µM (inactive) | > 100 µM (inactive) | 35.3 µM (inactive) |  | > 100 µM (inactive) | 26.9 µM (inactive) | 23.6 µM (inactive) |  | 17.8 µM (inactive) | > 100 µM (inactive) | 22.8 µM (inactive) | > 100 µM (inactive) | > 100 µM (inactive)
10 | COc1cc(-c2n[nH]cc2CCCC(=O)Nc2ccccc2[N+](=O)[O-])ccc1O | > 100 µM (inactive) |  |  | > 100 µM (inactive) | 40.2 µM (inactive) | > 100 µM (inactive) | 42.2 µM (inactive) | 59.3 µM (inactive) | > 100 µM (inactive) | 91.8 µM (inactive) | > 100 µM (inactive) | > 100 µM (inactive) |  | > 100 µM (inactive) | > 100 µM (inactive) | 46.9 µM (inactive) | > 100 µM (inactive)
11 | COC(=O)[C@@H]1C(=O)O[C@@H](c2cc(OC)c(OC)cc2OC)[C@@H]1C(=O)OC.COC(=O)[C@H]1C(=O)O[C@@H](c2cc(OC)c(OC)cc2OC)[C@@H]1C(=O)OC | > 100 µM (inactive) | > 100 µM (inactive) |  | > 100 µM (inactive) | > 100 µM (inactive) | > 100 µM (inactive) | > 100 µM (inactive) | > 100 µM (inactive) | > 100 µM (inactive) | > 100 µM (inactive) | > 100 µM (inactive) | > 100 µM (inactive) | > 100 µM (inactive) | > 100 µM (inactive) | > 100 µM (inactive) | > 100 µM (inactive) | > 100 µM (inactive)
12 | CS(=O)(=O)Oc1cccc(/C=N/N=C(\N)NO)c1 | > 100 µM (inactive) | 25.1 µM (inactive) | 34.8 µM (inactive) | 27.2 µM (inactive) |  | 22.2 µM (inactive) |  | 19.9 µM (inactive) | 35.2 µM (inactive) | 22.4 µM (inactive) | 38.8 µM (inactive) | 20.6 µM (inactive) | 35.2 µM (inactive) | 24.8 µM (inactive) | 33.2 µM (inactive) | 27.4 µM (inactive) | 14.7 µM (inactive)

Reference: ChEMBL document CHEMBL1201862, “PubChem BioAssay data set” (2004)
